We go through 15 compounds from patent US11207432B2, “Substituted organofluoroborates as imaging agents” (THE UNIVERSITY OF BRITISH COLUMBIA, priority 2013, dated 2021).

A short description of data set [1]: Solvolytic defluoridation of fluoridated organotrifluoroborates by 19F-NMR. In kind it is physicochemical. The following applies: 200 mM phosphate buffer pH 7.5, 19F NMR; for k(solvolysis): pseudo-first-order fit; for half-life: solvolytic defluoridation, read-out: half-life, t1/2. On the procedure: The following is are representative examples of testing of solvolytic defluoridation of fluoridated organoborates as shown in FIG. 1A to FIG. 1FF and Table 1. Solutions of the fluoridated organotrifluoroborates were made by dissolving 30 mg of the fluoridated organotrifluoroborate into 1 mL of 20% ethanol/acetonitrile.
As the fluoridated organotrifluoroborate salts were often contaminated with a significant amount of free fluoride, a silica column was used to remove the free fluoride from the organotrifluoroborate solution. After loading the crude reaction onto the silica column, the fractions containing the desired organotrifluoroborate were eluted and combined to form a combined solution. In view of the strong stability of the fluoridated organotrifluoroborate in organic solvent, 20% of the combined solution was stored in an NMR tube and this sample served as the “zero” minute time point. A purified organotrifluoroborate salt was isolated from the remaining portion of the combined solution (remaining 80% of the combined solution) by removing the organic solvent from the combined solution by vacuum. Removal of the organic solvent from the combined solution gave the purified fluoridated alkylbornate salt in the form of a white solid. The dry and purified fluoridated organotrifluoroborate salt was re-dissolved into 3 mL of 200 mM phosphate buffer. Solvolytic defluoridation started immediately upon dissolution of the fluoridated organotrifluoroborate salt into phosphate buffer, and accordingly, the time was recorded at the moment of dissolution. The progress of solvolytic defluoridation of the fluoridated organotrifluoroborate salt was monitored using ^19F NMR spectroscopy. General principles, methods and background relating to the use of ^19F NMR spectroscopy for monitoring defluoridation are known, and may be found in, for example, Ting et al. (2008, J. Org. Chem. 73; 4662-70; Harwig et al. (2008) Tetrahedron Letters 49:3152-56; and Ting et al. (2008) Journal of Fluorine Chemistry 129:349-58. For each time point, solvolytic defluoridation data was collected using a 300 MHz ^19F NMR spectrometer (Bruker). ^19F NMR spectroscopic tracers for the fluoridated organotrifluoroborate salt at different times are shown in FIG. 1A. Use of ^19F-NMR to measure solvolytic defluoridation provides a useful model for measuring solvolytic 18F-defluoridation because if one F is lost, all are lost. Moreover, it is understood that the kinetic isotope effect in terms of B—F bond solvolysis is negligible. […] The degree of solvolytic defluoridation of the fluoridated organotrifluoroborate salt was plotted as a function of time, for example, as shown in FIG. 1B for Compound 6 of Table 1. ^19F NMR spectroscopic tracers for the fluoridated organotrifluoroborate salts of compounds listed in Table 1 at different times are shown in FIGS. 1A, 1C, 1E, 1G, 1I, 1K, 1M, 1O, 1Q, 1S, 1U, 1W, 1Y, 1AA, 1CC, and 1EE, and the degree of solvolytic defluoridation of the compounds as a function of time is shown in FIGS. 1B, 1D, 1F, 1H, 1J, 1L, 1N, 1P, 1R, 1T, 1V, 1X, 1ZZ, 1BB, 1DD, and 1FF.
The time curves shown in FIGS. 1B and 1D were fitted and a rate constant, ksolvolysis, for each time curve was calculated. As a measure of the stability of the fluoridated organoborate to solvolytic defluoridation, pkB—F values were calculated using the equation pkB—F=−log(ksolvolysis). In addition to pkB—F values, observed solvolytic defluoridation half-life, t1/2, values and rate constants, ksolvolysis, for a number of different fluoridated organoborates are listed in Table 1.

The conditions of data set [2]: pKa of the carboxylic acid carrying the same moiety as the RBF3 compound; cited from earlier work.
The nature of data set [3]: Stability of Rhodamine-BF3 conjugates in plasma by TLC. In kind it is in vitro ADME, mice. The following applies: tested as Rhodamine B conjugate, 37° C., 2 hours, fluorescence analysis. On the procedure: The symbols A, B, C represent Rhodamine-ArBF3, Rhodamine-PyrBF3, and […] of Table 1, respectively. The subscript numbers 1, 2, 3 represent different test conditions: Plasma 1, Plasma 2 and PBS buffer (Plasma 1 and Plasma 2 were acquired from different mice).
The following is a representative example of testing of solvolytic defluoridation of a fluoridated organotrifluoroborate as shown in FIG. 3. 2 nmol Rhodamine-BF3 was added into 100 μL plasma, and then incubated at 37° C. After 2 hours, 200 μL acetonitrile (ACN) was added to precipitate the protein from the solution. The crude was filtered with 40 μm filter paper, and then a reddish purple solution was achieved. 1 μL of this solution was loaded on the TLC plate. The TLC plate was developed by 15% methanol/DCM. The TLC chromatograms for an aryltrifluoroborate (Rhodamine-ArBF3), Rhodamine-PyrBF3, and a quaternary ammoniomethyltrifluoroborate (Rhodamine-Compound 10 of Table 1) are shown as FIG. 3.
In the TLC chromatograms, Rhodamine B was conjugated with the trifluoroborate to trace the decomposition. The hydrolyzed product lost the negative charge, and therefore migrated much more rapidly than the precursor.

The nature of data set [4]: Stability of 18F-radiolabeled organotrifluoroborate in plasma by HPLC. In kind it is in vitro ADME. The conditions noted are these: 18F-labelled, 37° C., 150 mins, in vitro test n=3. On the procedure:
1.1 mCi of ^18F-Compound 10 (^18F-ammoniomethyltrifluoroborate) was mixed with 100 μL of plasma to form a ^18F-Compound 10-plasma mixture, and then incubated at 37° C. for two hours. 200 uL of acetonitrile (ACN) was then added to the ^18F-Compound 10-plasma mixture to precipitate the protein from the mixture. The precipated protein portion was separated from the mixture by filtration with 40 μm filter paper, and the clear filtrate was injected into an HPLC for stability analysis. Chromatograms for independent HPLC tests of Rhodamine-Compound 10 of Table 1 at 0 minutes (A), 80 minutes (B), 150 minutes (C), 0 minutes (D), 150 minutes (E), and 150 minutes (F) are shown in FIG. 4A through FIG. 4F.

For the compound `CC[NH+](CC)C[B-](F)(F)F` [Compound 6], in data set [1], the “pk (solvolysis) = −log k(solvolysis)” value is 3.7554, the “k(solvolysis)” value is reported as 0.000175 min − 1 and the half-life was 65.5 h. In data set [2], the “pKa of Corresponding COOH” value is 2.34.

Consider `F[B-](F)(F)C(Cl)Cl` [Compound 11], for which, in data set [1], the “pk (solvolysis) = −log k(solvolysis)” value amounted to 5.3372, the “k(solvolysis)” value was 4.6 × 10^−5 min − 1 and the half-life came out at 2500 h. Also, the “pKa of Corresponding COOH” value in data set [2] is 1.29.

For the compound `CCCC[B-](F)(F)F` [Compound 1, butyltrifluoroborate], in data set [1], the “pk (solvolysis) = −log k(solvolysis)” value is listed as 0.52, the “k(solvolysis)” value amounted to 0.3 min − 1 and the half-life is 0.0383 to 0.05 h. The “pKa of Corresponding COOH” value in data set [2] is 4.81.

With `C=C[B-](F)(F)F` [Compound 2, vinyltrifluoroborate], in data set [1], the “pk (solvolysis) = −log k(solvolysis)” value was found to be 1.01, the “k(solvolysis)” value worked out at 0.099 min − 1 and the half-life turned out to be 0.117 h. The “pKa of Corresponding COOH” value in data set [2] is on record as 4.25.

`C#CC[N+](C)(C[B-](F)(F)F)C[B-](F)(F)F` [Compound 18]: in data set [1], the “pk (solvolysis) = −log k(solvolysis)” value amounted to 3.61, the “k(solvolysis)” value came to 0.000246 min − 1 and the half-life was 47 h.

As to `C[S+](C[B-](F)(F)F)c1ccccc1` (stereo not shown) [Compound 12], in data set [1], the “pk (solvolysis) = −log k(solvolysis)” value was 5.82, the “k(solvolysis)” value was 1.5 × 10^−5 min − 1 and the half-life turned out to be 7670 h.

For the compound `C#CC[N+](C)(C)C[B-](F)(F)F` [Compound 10], in data set [1], the “pk (solvolysis) = −log k(solvolysis)” value was 4.5036, the “k(solvolysis)” value is reported as 3.14 × 10^−5 min − 1 and the half-life came to 367 h. Also, the “decomposition (hydrolyzed product) on TLC after incubation in plasma” value in data set [3] was “almost no hydrolyzed product was detected”. Further, the “decomposition in plasma by HPLC” value in data set [4] is reported as “almost no decomposition was observed”. Further, in data set [2], the “pKa of Corresponding COOH” value is recorded as 1.83.

In the case of `F[B-](F)(F)CBr` [Compound 4, bromomethyltrifluoroborate], in data set [1], the “pk (solvolysis) = −log k(solvolysis)” value was 2.98, the “k(solvolysis)” value came to 0.000768 min − 1 and the half-life amounted to 11 h. Further, the “pKa of Corresponding COOH” value in data set [2] is reported as 2.86.

Regarding `C[n+]1ccn(C[B-](F)(F)F)c1` [Compound 15], in data set [1], the “pk (solvolysis) = −log k(solvolysis)” value is recorded as 2.59, the “k(solvolysis)” value was 0.00259 min − 1 and the half-life was 4.43 h.

Consider `C[N+](C)(CC(=O)O)C[B-](F)(F)F` [Compound 17], for which, in data set [1], the “pk (solvolysis) = −log k(solvolysis)” value is 2.70, the “k(solvolysis)” value stood at 0.0020 min − 1 and the half-life stood at 5.77 h.

Regarding `O=C(CCCCO)[B-](F)(F)F` [Compound 5], in data set [1], the “pk (solvolysis) = −log k(solvolysis)” value is reported as 3.5249, the “k(solvolysis)” value came to 0.000298 min − 1 and the half-life turned out to be 38.5 h. Further, the “pKa of Corresponding COOH” value in data set [2] is listed as 2.5.

Take `O=C(c1ccccc1)[B-](F)(F)F` [Compound 8, benzoytrifluoroborate]: the “pk (solvolysis) = −log k(solvolysis)” value in data set [1] turned out to be 4.0700. The “pKa of Corresponding COOH” value in data set [2] is 2.35.

In the case of `COC(=O)C[N+](C)(C)C[B-](F)(F)F` [Compound 16], in data set [1], the “pk (solvolysis) = −log k(solvolysis)” value stood at 4.17, the “k(solvolysis)” value was found to be 0.0000673 min − 1 and the half-life worked out at 172 h.

For `F[B-](F)(F)COCc1ccccc1` [Compound 3], in data set [1], the “pk (solvolysis) = −log k(solvolysis)” value stood at 2.32, the “k(solvolysis)” value came to 0.00476 min − 1 and the half-life amounted to 2.42 h. In addition, in data set [2], the “pKa of Corresponding COOH” value is recorded as 3.53.

With `F[B-](F)(F)C[n+]1ccccc1` [Compound 14], in data set [1], the “pk (solvolysis) = −log k(solvolysis)” value turned out to be 4.19, the “k(solvolysis)” value was 6.45 × 10^−5 min − 1 and the half-life is 178 h. Further, the “pKa of Corresponding COOH” value in data set [2] was 2.14.
